Columns and labels:
Quadruplex DNA [1] = experiment: Stabilization of 5'-FAM/3'-TAMRA labeled telomeric G4 quadruplex DNA F21T (unknown origin) assessed as change in melting temperature at 10 microM measured after 15 mins by FRET assay; assay type: nucleic-acid assay
DU-145 [2] = experiment: Antitumour activity against human DU-145 cells xenografted in Crl:Nu-Foxnl nu mouse assessed as inhibition of tumour growth at total effective dose of 8 mg/kg, iv measured on day 33; assay type: functional; conditions: DU-145, iv, 792 h, time 33 day, read-out: TGI
MDA-MB-231 [3] = experiment: Antitumour activity against human MDA-MB-231 cells xenografted in Crl:Nu-Foxnl nu mouse assessed as inhibition of tumour growth at total effective dose of 8 mg/kg, iv measured on day 50; assay type: functional; conditions: MDA-MB-231, iv, 1200 h, time 50 day, read-out: TGI
NCI-H460 [4] = experiment: Cytotoxicity against human NCI-H460 cells assessed as reduction in cell viability measured after 72 hrs by SRB assay; assay type: functional, cell-based; conditions: NCI-H460, 72 h
ASPC1 = experiment: Cytotoxicity against human ASPC1 cells assessed as reduction in cell viability measured after 72 hrs by SRB assay; assay type: functional, cell-based; conditions: ASPC1, 72 h
Quadruplex DNA [5] = experiment: Stabilization of 5'-FAM/3'-TAMRA labeled c-Myc promoter G4 quadruplex DNA FPu18 (unknown origin) assessed as change in melting temperature at 10 microM measured after 15 mins by FRET assay; assay type: nucleic-acid assay
[6] = Stabilization of ds 5'-FAM-d(TATAGCTATA-HEG-TATAGCTATA)-TAMRA-3' (unknown origin) assessed as change in melting temperature at 10 microM measured after 15 mins by FRET assay; conditions: Homo sapiens
DU-145 [7] = experiment: Antitumour activity against human DU-145 cells xenografted in Crl:Nu-Foxnl nu mouse assessed as inhibition of tumour growth at total effective dose of 32 mg/kg, iv measured on day 63; assay type: functional; conditions: DU-145, iv, 1512 h, time 63 day, read-out: TGI
NCI-H460 [8] = experiment: Antitumour activity against human NCI-H460 cells xenografted in Crl:Nu-Foxnl nu mouse assessed as inhibition of tumour growth at total effective dose of 10 mg/kg, iv measured on day 21; assay type: functional; conditions: 504 h, time 21 day, read-out: TGI
PANC-1 [9] = experiment: Antitumour activity against human PANC-1 cells xenografted in Crl:Nu-Foxnl nu mouse assessed as inhibition of tumour growth at total effective dose of 120 mg/kg, iv measured on day 51; assay type: functional; conditions: PANC-1, iv, 1224 h, time 51 day, read-out: TGI
MDA-MB-231 [10] = experiment: Cytotoxicity against human MDA-MB-231 cells assessed as reduction in cell viability measured after 72 hrs by SRB assay; assay type: functional, cell-based; conditions: MDA-MB-231, 72 h
BXPC-3 = experiment: Cytotoxicity against human BXPC-3 cells assessed as reduction in cell viability measured after 72 hrs by SRB assay; assay type: functional, cell-based; conditions: BXPC-3, 72 h
MCF7 = experiment: Cytotoxicity against human MCF7 cells assessed as reduction in cell viability measured after 72 hrs by SRB assay; assay type: functional, cell-based; conditions: MCF7, 72 h
HT-29 = experiment: Cytotoxicity against human HT-29 cells assessed as reduction in cell viability measured after 72 hrs by SRB assay; assay type: functional, cell-based; conditions: HT-29, 72 h
MIA PaCa-2 = experiment: Cytotoxicity against human MIA PaCa-2 cells assessed as reduction in cell viability measured after 72 hrs by SRB assay; assay type: functional, cell-based; conditions: MIA PaCa-2, 72 h
DU-145 [11] = experiment: Cytotoxicity against human DU-145 cells assessed as reduction in cell viability measured after 72 hrs by SRB assay; assay type: functional, cell-based; conditions: DU-145, 72 h
LNCaP = experiment: Cytotoxicity against human LNCaP cells assessed as reduction in cell viability measured after 72 hrs by SRB assay; assay type: functional, cell-based
HCT-116 [12] = experiment: Cytotoxicity against human HCT-116 cells assessed as reduction in cell viability measured after 72 hrs by SRB assay; assay type: functional, cell-based; conditions: HCT-116, 72 h
PC-3 = experiment: Cytotoxicity against human PC-3 cells assessed as reduction in cell viability measured after 72 hrs by SRB assay; assay type: functional, cell-based; conditions: PC-3, 72 h
W256 [13] = experiment: Antitumour activity against Walker 256 adenocarcinoma cells implanted in Wistar rat assessed as increase in animal survival rate by measuring T/C ratio at 2 mg/kg, ip qd for 3 days administered on day 3,4,5 after tumor cell transplantation; assay type: functional; conditions: time 3 day
Quadruplex DNA [14] = experiment: Stabilization of 5'-FAM/3'-TAMRA labeled K-Ras G4 quadruplex DNA (unknown origin) assessed as change in melting temperature at 10 microM measured after 15 mins by FRET assay; assay type: nucleic-acid assay
PANC-1 [15] = experiment: Cytotoxicity against human PANC-1 cells assessed as reduction in cell viability measured after 72 hrs by SRB assay; assay type: functional, cell-based; conditions: PANC-1, 72 h
UMUC3 = experiment: Cytotoxicity against human UMUC3 cells assessed as reduction in cell viability measured after 72 hrs by SRB assay; assay type: functional, cell-based; conditions: UMUC3, 72 h
W256 [16] = experiment: Antitumour activity against Walker 256 adenocarcinoma cells implanted in Wistar rat assessed as increase in animal survival rate by measuring T/C ratio at 5 mg/kg, ip qd for 3 days administered on day 3,4,5 after tumor cell transplantation; assay type: functional; conditions: time 3 day
HCT-116 [17] = experiment: Antitumour activity against human HCT-116 cells xenografted in Crl:Nu-Foxnl nu mouse assessed as inhibition of tumour growth at total effective dose of 100 mg/kg, ip measured on day 23; assay type: functional; conditions: HCT-116, ip, 552 h, time 23 day, read-out: TGI
DU-145 [18] = experiment: Antitumour activity against human DU-145 cells xenografted in Crl:Nu-Foxnl nu mouse assessed as inhibition of tumour growth at total effective dose of 16 mg/kg, iv measured on day 35; assay type: functional; conditions: DU-145, iv, 840 h, time 35 day, read-out: TGI
W256 [19] = experiment: Antitumour activity against Walker 256 adenocarcinoma cells implanted in Wistar rat assessed as increase in animal survival rate by measuring T/C ratio at 2.5 mg/kg, ip qd for 3 days administered on day 3,4,5 after tumor cell transplantation; assay type: functional; conditions: time 3 day
NCI-H460 [20] = experiment: Antitumour activity against human NCI-H460 cells xenografted in Crl:Nu-Foxnl nu mouse assessed as inhibition of tumour growth at total effective dose of 48 mg/kg, iv measured on day 23; assay type: functional; conditions: 552 h, time 23 day, read-out: TGI
DU-145 [21] = experiment: Antitumour activity against human DU-145 cells xenografted in Crl:Nu-Foxnl nu mouse assessed as inhibition of tumour growth at total effective dose of 8 mg/kg, iv measured on day 64; assay type: functional; conditions: DU-145, iv, 1536 h, time 64 day, read-out: TGI
HCT-116 [22] = experiment: Antitumour activity against human HCT-116 cells xenografted in Crl:Nu-Foxnl nu mouse assessed as inhibition of tumour growth at total effective dose of 18 mg/kg, ip measured on day 14; assay type: functional; conditions: HCT-116, ip, 336 h, time 14 day, read-out: TGI
HCT-116 [23] = experiment: Antitumour activity against human HCT-116 cells xenografted in Crl:Nu-Foxnl nu mouse assessed as inhibition of tumour growth at total effective dose of 24 mg/kg, iv measured on day 30; assay type: functional; conditions: HCT-116, iv, 720 h, time 30 day, read-out: TGI

Structure (SMILES) | ΔTm (Quadruplex DNA [1]) [°C] | IC50 (NCI-H460 [4]) [nM] | IC50 (ASPC1) [nM] | ΔTm (Quadruplex DNA [5]) [°C] | ΔTm [6] [°C] | IC50 (MDA-MB-231 [10]) [nM] | IC50 (MCF7) [nM] | IC50 (HT-29) [nM] | IC50 (MIA PaCa-2) [nM] | IC50 (DU-145 [11]) [nM] | IC50 (HCT-116 [12]) [nM] | IC50 (PC-3) [nM] | ΔTm (Quadruplex DNA [14]) [°C] | IC50 (PANC-1 [15]) [nM] | IC50 (UMUC3) [nM] | further results
Cc1ccc(NCCCN2CCN(CCCNc3c4ccccc4nc4cccc([N+](=O)[O-])c34)CC2)c2c(=O)c3cc(O)ccc3[nH]c12 | 7.3 | 5 | 79 | 17.9 | 1.7 | 28 | 113 | 23 | 16 | 20 | 19 | 48 | 27.6 | 27 | 9.5 | inhibition in vivo at 8 mg/kg (DU-145 [2]): 51%; inhibition in vivo at 8 mg/kg (MDA-MB-231 [3]): 30%; inhibition in vivo at 32 mg/kg (DU-145 [7]): 90%; inhibition in vivo at 10 mg/kg (NCI-H460 [8]): 42%; inhibition in vivo at 120 mg/kg (PANC-1 [9]): 75%; IC50 (BXPC-3): 59 nM; IC50 (LNCaP): 84 nM; T/C (W256 [13]): 250%
Cc1ccc([N+](=O)[O-])c2c(NCCCN(C)CCCNc3ccc([N+](=O)[O-])c4[nH]c5ccccc5c(=O)c34)c3ccccc3nc12 | 6.8 | 55 |  | 18.8 | 2.4 |  |  | 230 |  | 44 | 74 |  | 28.5 | 110 | 54 | T/C (W256 [16]): 1000%; inhibition in vivo at 100 mg/kg (HCT-116 [17]): 52%
O=c1c2ccccc2[nH]c2c([N+](=O)[O-])ccc(NCCCN3CCN(CCCNc4c5ccccc5nc5cccc([N+](=O)[O-])c45)CC3)c12 | 8.5 | 9 | 78 | 23.7 | 3.2 | 28 | 77 |  | 28 | 11 | 20 | 26 | 25.1 | 56 | 17 | inhibition in vivo at 16 mg/kg (DU-145 [18]): 77%; T/C (W256 [19]): 400%; inhibition in vivo at 48 mg/kg (NCI-H460 [20]): 60%; inhibition in vivo at 8 mg/kg (DU-145 [21]): 81%; inhibition in vivo at 18 mg/kg (HCT-116 [22]): 52%; inhibition in vivo at 24 mg/kg (HCT-116 [23]): 34%

Source: ChEMBL document CHEMBL4765407, “Design, synthesis and high antitumor potential of new unsymmetrical bisacridine derivatives towards human solid tumors, specifically pancreatic cancers and their unique ability to stabilize DNA G-quadruplexes” (Eur J Med Chem, 2020)
